Assay results from article PMC6131205, “Controlling the regioselectivity and stereospecificity of FAD-dependent polyamine oxidases with the use of amine-attached guide molecules as conformational modulators” (Bioscience Reports, 2018).
Like-named read-outs stand apart in the source and are kept apart here.

What was measured:
Fms1 [1] = biological target: T1, Fms1 (Saccharomyces cerevisiae, UniProt P50264); experiment: Fms1 cleavage of 1 mM Spd supplemented with aldehydes (E1/E2 regioselectivity); format: biochemical, yeast; parameters: made in house; conditions: for E1 cleavage (Put) kcat / E2 cleavage (DAP) kcat / Ratio of E1/E2: fixed 1 mM Spd, aldehyde 25-1000 μM, pH 9.0, 25°C; for effect on cleavage site balance of Spd: Spd plus aldehyde;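 for all read-outs here: recombinant yeast Fms1 reactions in Glycine-NaOH buffer, with products Put and DAP quantified by HPLC using post-column o-phthalaldehyde derivatization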
T1 sequence (P50264 whole entry): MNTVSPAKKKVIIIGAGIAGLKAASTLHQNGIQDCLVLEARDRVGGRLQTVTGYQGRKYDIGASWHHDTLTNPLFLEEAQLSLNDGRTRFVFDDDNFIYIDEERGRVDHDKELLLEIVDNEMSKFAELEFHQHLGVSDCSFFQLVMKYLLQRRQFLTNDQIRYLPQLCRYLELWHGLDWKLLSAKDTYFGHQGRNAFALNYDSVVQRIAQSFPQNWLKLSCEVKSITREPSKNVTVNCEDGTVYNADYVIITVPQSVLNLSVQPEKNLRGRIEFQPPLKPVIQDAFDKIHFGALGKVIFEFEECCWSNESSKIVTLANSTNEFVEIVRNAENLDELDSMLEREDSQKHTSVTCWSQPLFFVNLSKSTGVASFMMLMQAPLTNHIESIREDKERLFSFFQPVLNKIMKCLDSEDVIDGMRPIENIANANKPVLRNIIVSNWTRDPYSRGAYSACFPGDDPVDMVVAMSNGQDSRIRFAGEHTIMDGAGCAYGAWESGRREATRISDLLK
Method: (§1) HPLC with post-column o-phthalaldehyde-derivatization was used to determine the concentrations of the reaction products Put and 1,3-diaminopropane (DAP) or butane-1,3-diamine respectively as described in [30]. Fms1 activity was determined essentially as described for human recombinant APAO, but reactions were carried out in 100 mM Glycine-NaOH buffer at pH 9.0 in a water bath at +25°C [29, 30].

Fms1 [2] = biological target: T1, Fms1; experiment: Fms1 cleavage of (R)- or (S)-MeSpd with or without aromatic aldehyde (E1/E2 velocities); format: biochemical, yeast; parameters: made in house
Method: Supplementary Table 3 The effects of increasing aromatic aldehyde concentration for the regioselectivity of Fms1 using (R)-MeSpd or (S)-MeSpd as a substrate.
The reactions were carried out in triplicate at pH 9.0 in 100 mM Glycine-NaOH at +25°C with the fixed 1 or 4 mM MeSpd supplemented with increasing concentration 50 or 500 µM of tested aldehyde. Recombinant Fms1 was 1.6 µg/reaction and the incubation time from 15 to 30 minutes.
Linearity of reaction was monitored by using T1/2 controls, i.e. samples that have been incubated for 7.5 to 15 min (half of the reaction time of an ordinary sample). E1 cleavage was monitored by HPLC by measuring Put formation and E2 cleavage by determining butane-1,3-diamine content.
Substrate (R)-MeSpd (S)-MeSpd […]

Fms1 [3] = biological target: T1, Fms1; experiment: as above; format: biochemical, yeast; parameters: made in house; remark: listed apart in the source
Fms1 [4] = biological target: T1, Fms1; experiment: Substrate kinetics with recombinant Fms1 (HPLC of reaction products); conditions: for Km: Fms1, text summary of Supplementary Table S2;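 for all read-outs here: recombinant polyamine oxidases incubated with substrate, product amines (putrescine, 1,3-diaminopropane or butane-1,3-diamine) quantified by HPLC after post-column o-phthalaldehyde derivatization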
Method: as §1
The reactions were carried out in 1 triplicate at pH 9.0 in 100 mM Glycine-NaOH at +25°C.
values for N -Ac-MeSpd enantiomers were determined by using substrate concentrations of 25, 50,
for Rac-MeSpd 30 min, (R)-MeSpd 20 min and (S)-MeSpd 40 minutes.
The reactions were carried out in triplicate at pH 9.0 in 100 mM Glycine-NaOH at +25°C.
values for MeSpd enantiomers were determined by using substrate concentrations of 100, 300, 600,
1000, 2000 and 4000 M. Recombinant Fms1 was 3.8 g/reaction and the incubation time 60
incubated for 30 min (half of the reaction time of an ordinary sample). E1 cleavage was monitored

human recombinant APAO [5] = biological target: T2, human recombinant APAO (Homo sapiens, UniProt Q6QHF9); conditions: cited from earlier work
T2 construct: made in house
T2 sequence (Q6QHF9 whole entry): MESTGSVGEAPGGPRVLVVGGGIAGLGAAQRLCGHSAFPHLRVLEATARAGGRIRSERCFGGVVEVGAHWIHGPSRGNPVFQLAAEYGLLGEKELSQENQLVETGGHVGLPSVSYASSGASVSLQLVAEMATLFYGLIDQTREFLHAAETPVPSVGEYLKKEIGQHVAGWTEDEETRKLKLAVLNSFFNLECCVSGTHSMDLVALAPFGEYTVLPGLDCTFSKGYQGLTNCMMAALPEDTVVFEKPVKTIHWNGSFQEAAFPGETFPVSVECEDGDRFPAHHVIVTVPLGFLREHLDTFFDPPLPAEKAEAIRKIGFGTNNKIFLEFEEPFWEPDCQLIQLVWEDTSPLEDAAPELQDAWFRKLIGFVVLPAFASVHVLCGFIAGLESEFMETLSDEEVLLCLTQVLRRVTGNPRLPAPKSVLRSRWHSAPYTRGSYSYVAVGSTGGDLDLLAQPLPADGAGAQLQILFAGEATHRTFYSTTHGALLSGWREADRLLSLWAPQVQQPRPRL

SMOX [6] = biological target: T3, SMOX (Homo sapiens, UniProt Q9NWM0); experiment: Inhibition of SMOX (Ki, peroxidase-coupled fluorescence, Spm as substrate)
T3 sequence (Q9NWM0 whole entry): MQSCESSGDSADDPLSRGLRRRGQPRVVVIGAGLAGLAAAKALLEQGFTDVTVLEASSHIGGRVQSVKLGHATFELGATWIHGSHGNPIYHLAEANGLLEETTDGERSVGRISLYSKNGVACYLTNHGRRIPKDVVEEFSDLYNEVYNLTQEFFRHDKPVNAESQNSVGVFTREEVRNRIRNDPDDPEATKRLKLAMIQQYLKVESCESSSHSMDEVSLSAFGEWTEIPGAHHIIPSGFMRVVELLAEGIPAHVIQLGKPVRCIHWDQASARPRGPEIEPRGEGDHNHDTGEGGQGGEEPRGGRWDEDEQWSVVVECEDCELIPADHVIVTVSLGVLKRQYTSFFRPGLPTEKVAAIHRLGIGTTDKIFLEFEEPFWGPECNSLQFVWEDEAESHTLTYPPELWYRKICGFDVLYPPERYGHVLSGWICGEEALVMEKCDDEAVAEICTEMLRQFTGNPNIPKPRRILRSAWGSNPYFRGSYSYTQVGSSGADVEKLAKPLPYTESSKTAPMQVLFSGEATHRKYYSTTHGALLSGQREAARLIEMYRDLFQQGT
Method: Reaction mixtures contained 40 units/ml horseradish peroxidase (Roche), 1 mM homovanillic acid in 100 mM Glycine-NaOH at pH 9.0 supplemented with 40 ng of SMOX. […] Dilutions of fresh H2O2 were used as standard.

human recombinant APAO [7] = biological target: T2, human recombinant APAO; experiment: Substrate kinetics with human recombinant APAO (HPLC of reaction products); format: biochemical; conditions: for Km / Vmax / kcat: 100 mM Glycine-NaOH pH 9.5, 5 mM DTT
SMOX [8] = biological target: T3, SMOX; experiment: Substrate properties with human recombinant SMOX; format: biochemical; parameters: made in house
Description: Thus, developing specific inhibitors of SMOX is of crucial importance. In addition, the use of specific substrates for SMOX and APAO would enable distinguishing between APAO and SMOX enzyme activities in vivo.

[9] = aldehyde A13 50 µM, first of two lines (1 or 4 mM MeSpd, not stated which)
[10] = aldehyde A12 50 µM, first of two lines (1 or 4 mM MeSpd, not stated which)
[11] = aldehyde A12 50 µM, second of two lines (1 or 4 mM MeSpd, not stated which)
[12] = aldehyde A12 500 µM, first of two lines (1 or 4 mM MeSpd, not stated which)
[13] = aldehyde A12 500 µM, second of two lines (1 or 4 mM MeSpd, not stated which)
[14] = aldehyde A13 50 µM, second of two lines (1 or 4 mM MeSpd, not stated which)
[15] = aldehyde A13 500 µM, first of two lines (1 or 4 mM MeSpd, not stated which)
[16] = aldehyde A13 500 µM, second of two lines (1 or 4 mM MeSpd, not stated which)
[17] = Supplementary Table 1, pH 9.0, 100 mM Glycine-NaOH, 25°C, Put formation
[18] = Ki (best-fit value, noncompetitive inhibition), GraphPad Prism global fit, supplement
[19] = Ki, non-competitive fit, 25, 50 or 100 µM Spm, pH 9.0, 37°C

With `O=Cc1ccncc1` [C00005] the “E1 cleavage (Put) kcat” value (Fms1 [1]) was 7.4 ± 0.2 s⁻¹, the “E2 cleavage (DAP) kcat” value (Fms1 [1]) was 0.19 ± 0.01 s⁻¹ and the “Ratio of E1/E2” value (Fms1 [1]) was 12.9.
Compound `C[C@@H](N)CCNCCCCN` [(R)-MeSpd, 1,8-diamino-5-azanonane] has an E2 cleavage velocity (Fms1 [2]; Without aldehyde, 1 mM MeSpd) of 4.3 ± 0.9 nmol/mg/min, an E1 cleavage velocity (Fms1 [2]; Without aldehyde, 4 mM MeSpd) of 12.5 ± 0.0 nmol/mg/min and an E2 cleavage velocity (Fms1 [2]; Without aldehyde, 4 mM MeSpd) of 5.6 ± 0.4 nmol/mg/min. It also gave an E1 cleavage velocity (Fms1 [2]; [9]) of 19.1 ± 1.0 nmol/mg/min, an E1 cleavage velocity (Fms1 [3]; Without aldehyde, 1 mM MeSpd) of 9.5 ± 0.1 nmol/mg/min and an E1 cleavage velocity (Fms1 [3]; [10]) of 10.5 ± 1.1 nmol/mg/min. The E2 cleavage velocity (Fms1 [3]; [10]) was 33.7 ± 4.8 nmol/mg/min, the E1 cleavage velocity (Fms1 [3]; [11]) was 14.0 ± 0.9 nmol/mg/min and the E2 cleavage velocity (Fms1 [3]; [11]) was 31.8 ± 4.3 nmol/mg/min. For the same compound, the E1 cleavage velocity (Fms1 [3]; [12]) was 12.7 ± 1.6 nmol/mg/min, the E2 cleavage velocity (Fms1 [3]; [12]) was 186 ± 24 nmol/mg/min and the E1 cleavage velocity (Fms1 [3]; [13]) was 14.4 ± 0.8 nmol/mg/min. It also gave an E2 cleavage velocity (Fms1 [3]; [13]) of 216 ± 31 nmol/mg/min, an E2 cleavage velocity (Fms1 [3]; [9]) of 10.3 ± 3.1 nmol/mg/min and an E1 cleavage velocity (Fms1 [3]; [14]) of 19.1 ± 0.4 nmol/mg/min. It also gave an E2 cleavage velocity (Fms1 [3]; [14]) of 9.6 ± 2.2 nmol/mg/min, an E1 cleavage velocity (Fms1 [3]; [15]) of 72.8 ± 2.3 nmol/mg/min and an E2 cleavage velocity (Fms1 [3]; [15]) of 41.5 ± 3.4 nmol/mg/min. The E1 cleavage velocity (Fms1 [3]; [16]) was 63.1 ± 1.0 nmol/mg/min, the E2 cleavage velocity (Fms1 [3]; [16]) was 39.5 ± 2.1 nmol/mg/min and the Km (Fms1 [4]) was > 500 µM. The “specificity constant ratio (R)/(S) of benzaldehyde Schiff base derivatives” value (human recombinant APAO [5]; benzaldehyde Schiff base of MeSpd) was “eight”.
For `CC(=O)N[C@@H](C)CCNCCCCN` [N^1-Ac-(S)-MeSpd], the Vmax (Fms1 [4]; [17]) is given as 22 ± 1 nmol/min/mg, the kcat (Fms1 [4]; [17]) is given as 0.02 ± 0.00 s⁻¹ and the Km (human recombinant APAO [5]) is given as 170 µM. For the same compound, the kcat (human recombinant APAO [5]) was 1.2 s⁻¹.
With `O=Cc1cccnc1` [C00006] the “E1 cleavage (Put) kcat” value (Fms1 [1]) was 5.5 ± 0.1 s⁻¹, the “E2 cleavage (DAP) kcat” value (Fms1 [1]) was 0.48 ± 0.01 s⁻¹ and the “Ratio of E1/E2” value (Fms1 [1]) was 8.0.
In the case of `COc1ccc(C=O)cc1` [A4], the “effect on cleavage site balance of Spd” value (Fms1 [1]) is reported as “shifted the balance towards E2 cleavage site”.
In the case of `C[C@H](CCNCCCCN)NC(=O)c1ccccc1` [Bz-(R)-MeSpd], the Ki (SMOX [6]; [18]) is reported as 589 µM, the Ki (SMOX [6]; [19]) is reported as 589 ± 58 µM and the Km (human recombinant APAO [7]) is reported as 1.2 ± 0.7 µM. It also gave a Vmax (human recombinant APAO [7]) of 5.02 ± 0.74 µmol/min/mg and a kcat (human recombinant APAO [7]) of 4.6 ± 0.7 s⁻¹.
Compound `C[C@@H](CCNCCCCN)NC(=O)c1ccncc1` [P4-(S)-MeSpd] has a Ki (SMOX [6]; [18]) of 1020 µM, a Ki (SMOX [6]; [19]) of 1020 ± 79 µM and a Km (human recombinant APAO [7]) of 0.8 ± 0.2 µM. It also gave a Vmax (human recombinant APAO [7]) of 0.02 ± 0.00 µmol/min/mg and a kcat (human recombinant APAO [7]) of 0.01 ± 0.00 s⁻¹.
With `O=Cc1ccccn1` [A18] the “effect on cleavage site balance of Spd” value (Fms1 [1]) was “shifted the balance towards E2 cleavage site”.
In the case of `O=Cc1ccc(O)cc1` [C00004], the “E1 cleavage (Put) kcat” value (Fms1 [1]) is reported as 0.11 ± 0.00 s⁻¹, the “E2 cleavage (DAP) kcat” value (Fms1 [1]) is reported as 0.03 ± 0.00 s⁻¹ and the “Ratio of E1/E2” value (Fms1 [1]) is reported as 118.
With `O=Cc1cccc(O)c1` [C00003] the “E1 cleavage (Put) kcat” value (Fms1 [1]) was 0.31 ± 0.01 s⁻¹, the “E2 cleavage (DAP) kcat” value (Fms1 [1]) was 0.47 ± 0.01 s⁻¹ and the “Ratio of E1/E2” value (Fms1 [1]) was 0.22.
Compound `C[C@H](N)CCNCCCCN` [(S)-MeSpd, 1,8-diamino-5-azanonane] has an E2 cleavage velocity (Fms1 [2]; Without aldehyde, 1 mM MeSpd) of 7.9 ± 1.1 nmol/mg/min, an E1 cleavage velocity (Fms1 [2]; Without aldehyde, 4 mM MeSpd) of 9.6 ± 0.1 nmol/mg/min and an E2 cleavage velocity (Fms1 [2]; Without aldehyde, 4 mM MeSpd) of 11.1 ± 1.8 nmol/mg/min. For the same compound, the E1 cleavage velocity (Fms1 [2]; [9]) was 45.6 ± 2.6 nmol/mg/min, the E1 cleavage velocity (Fms1 [3]; Without aldehyde, 1 mM MeSpd) was 7.2 ± 0.2 nmol/mg/min and the E1 cleavage velocity (Fms1 [3]; [10]) was 29 ± 1.0 nmol/mg/min. It also gave an E2 cleavage velocity (Fms1 [3]; [10]) of 20.2 ± 1.0 nmol/mg/min, an E1 cleavage velocity (Fms1 [3]; [11]) of 31 ± 1.8 nmol/mg/min and an E2 cleavage velocity (Fms1 [3]; [11]) of 23.3 ± 2.0 nmol/mg/min. For the same compound, the E1 cleavage velocity (Fms1 [3]; [12]) was 57 ± 1.1 nmol/mg/min, the E2 cleavage velocity (Fms1 [3]; [12]) was 36 ± 4.2 nmol/mg/min and the E1 cleavage velocity (Fms1 [3]; [13]) was 62 ± 3 nmol/mg/min. It also gave an E2 cleavage velocity (Fms1 [3]; [13]) of 41 ± 2.5 nmol/mg/min, an E2 cleavage velocity (Fms1 [3]; [9]) of 8.6 ± 1.8 nmol/mg/min and an E1 cleavage velocity (Fms1 [3]; [14]) of 44.0 ± 1.2 nmol/mg/min. It also gave an E2 cleavage velocity (Fms1 [3]; [14]) of 10.0 ± 0.6 nmol/mg/min, an E1 cleavage velocity (Fms1 [3]; [15]) of 66.1 ± 0.0 nmol/mg/min and an E2 cleavage velocity (Fms1 [3]; [15]) of 6.9 ± 0.7 nmol/mg/min. The E1 cleavage velocity (Fms1 [3]; [16]) was 73.5 ± 0.4 nmol/mg/min, the E2 cleavage velocity (Fms1 [3]; [16]) was 7.4 ± 1.3 nmol/mg/min and the Km (Fms1 [4]) was > 500 µM.
For `C[C@H](CCNCCCCN)NCc1ccccc1` [Bn-(R)-MeSpd], the “substrate of SMOX” value (SMOX [8]) was “not being substrates of SMOX”, the Ki (SMOX [6]; [18]) was 441 µM and the Ki (SMOX [6]; [19]) was 441 ± 32 µM. For the same compound, the Km (human recombinant APAO [7]) was 2 ± 0.1 µM, the Vmax (human recombinant APAO [7]) was 0.15 ± 0.00 µmol/min/mg and the kcat (human recombinant APAO [7]) was 0.14 ± 0.00 s⁻¹. For the same compound, the “specificity constant ratio (R)-enantiomer/(S)-enantiomer” value (human recombinant APAO [7]; APAO, ratio of kcat/Km) was “four”.
With `O=Cc1cccc(O)c1` [A6] the “effect on cleavage site balance of Spd” value (Fms1 [1]) was “shifted the balance towards E2 cleavage site”.
For `C[C@H](CCNCCCCN)NC(=O)c1ccncc1` [P4-(R)-MeSpd], the Ki (SMOX [6]; [18]) was 1280 µM, the Ki (SMOX [6]; [19]) was 1280 ± 111 µM and the Km (human recombinant APAO [7]) was 3.6 ± 0.6 µM. The Vmax (human recombinant APAO [7]) was 5.59 ± 0.60 µmol/min/mg and the kcat (human recombinant APAO [7]) was 5.2 ± 0.6 s⁻¹.
In the case of `C[C@@H](CCNCCCCN)NCc1ccccc1` [Bn-(S)-MeSpd], the “substrate of SMOX” value (SMOX [8]) is reported as “not being substrates of SMOX”, the Ki (SMOX [6]; [18]) is reported as 155 µM and the Ki (SMOX [6]; [19]) is reported as 155 ± 13 µM. The Km (human recombinant APAO [7]) was 1.6 ± 0.6 µM, the Vmax (human recombinant APAO [7]) was 0.03 ± 0.00 µmol/min/mg and the kcat (human recombinant APAO [7]) was 0.03 ± 0.00 s⁻¹.
